According to patent USRE48097E1, “Cephem compounds, their production and use” (priority 2015, dated 2020):
Converted amounts (≈) assume the structure as drawn. Like-named read-outs stand apart in the source and are kept apart here.

Tests used:
S. pneumoniae 2493 = experiment: MIC against S. pneumoniae 2493; assay type: cell-based; conditions: Table 2, S. pneumoniae 2493, Pen R
From the text: (§1) Without limitation, the present cephem compounds alone, or in combination with one or more β-lactamase inhibitors, may provide improved antibacterial efficacy, particularly in antibiotic-resistant bacterial strains. It is believed that the present compounds may be structurally different from known compounds and, as a result, may be more basic in nature. It is an advantage that the present compounds may extend the spectrum of effective bacterial compounds, particularly against previously-resistant bacteria (e.g. ESKAPE organisms), and/or gram negative bacteria, without significant side effects. In a preferred embodiment, the present cephem compound may comprise reference compound ceftazidime, which may be used alone, or in combination with one or more β-lactamase inhibitors, such as NXL-104. As shown, the foregoing composition was tested for minimum inhibitory concentration (MIC, μg/mL) against bacteria listed in Tables 2-3.

E. coli 4098 = experiment: MIC against E. coli 4098; assay type: cell-based; conditions: Table 2, E. coli 4098, CTX-M-15, TEM-1
From the text: as §1

K. pneumoniae 2712 = experiment: MIC against K. pneumoniae 2712; assay type: cell-based; conditions: Table 3, K. pneumoniae 2712, KPC-3, VIM-1
Experimental: (§2) As shown, the foregoing composition was tested for minimum inhibitory concentration (MIC, μg/mL) against bacteria listed in Tables 2-3.

K. baumanii 4095 = experiment: MIC against K. baumanii 4095; assay type: cell-based; conditions: Table 2, K. baumanii 4095, OXA-48
From the text: as §1

K. pneumoniae 2690 = experiment: MIC against K. pneumoniae 2690; assay type: cell-based; conditions: Table 3, K. pneumoniae 2690, KPC-2
Experimental: as §2

K. pneumoniae 4088 = experiment: MIC against K. pneumoniae 4088; assay type: cell-based; conditions: Table 3, K. pneumoniae 4088, KPC-3
Experimental: as §2

K. pneumoniae 4107 = experiment: MIC against K. pneumoniae 4107; assay type: cell-based; conditions: K. pneumoniae 4107, KPC-2, TEM-1, SHV-11
Experimental: as §2

S. pneumoniae 2407 = experiment: MIC against S. pneumoniae 2407; assay type: cell-based; conditions: Table 2, S. pneumoniae 2407, Pen S
From the text: as §1

S. aureus 3144 = experiment: MIC against S. aureus 3144; assay type: cell-based; conditions: Table 2, S. aureus 3144, MSSA
From the text: as §1

C. freundii 580 = experiment: MIC against C. freundii 580; assay type: cell-based; conditions: Table 2, C. freundii 580, Caz R, IMP S
From the text: as §1

E. cloacae596 = experiment: MIC against E. cloacae596; assay type: cell-based, E. cloacae; conditions: Table 2, E. cloacae596, Caz R, IMP S
From the text: as §1

E. coli 4102 = experiment: MIC against E. coli 4102; assay type: cell-based; conditions: Table 2, E. coli 4102, CTX-M-14
From the text: as §1

E. cloacae 2705 = experiment: MIC against E. cloacae 2705; assay type: cell-based; conditions: Table 3, E. cloacae 2705, VIM-1, KPC-3type
Experimental: as §2

[1] = test system: S. pneumoniae ATCC 700673; experiment: MIC against S. pneumoniae ATCC 700673; assay type: cell-based; conditions: Table 2, S. pneumoniae ATCC 700673, Pen R
From the text: as §1

E. cloacae 2704 = experiment: MIC against E. cloacae 2704; assay type: cell-based; conditions: Table 2, E. cloacae 2704, P99
From the text: as §1

K. pneumoniae 2689 = experiment: MIC against K. pneumoniae 2689; assay type: cell-based; conditions: K. pneumoniae 2689, KPC-2
Experimental: as §2

K. pneumoniae 4109 = experiment: MIC against K. pneumoniae 4109; assay type: cell-based; conditions: Table 2, K. pneumoniae 4109, SHV-1, SHV-12
From the text: as §1

P. aeruginosa 2686 = experiment: MIC against P. aeruginosa 2686; assay type: cell-based; conditions: Table 3, P. aeruginosa 2686, KPC-2
Experimental: as §2

M. morganii 2409 = experiment: MIC against M. morganii 2409; assay type: cell-based; conditions: Table 2, M. morganii 2409, High level cephase, β-Lactamase producing
From the text: as §1

E. coli 2668 = experiment: MIC against E. coli 2668; assay type: cell-based; conditions: Table 2, E. coli 2668, OXA-48
From the text: as §1

S. pneumoniae 2389 = experiment: MIC against S. pneumoniae 2389; assay type: cell-based; conditions: Table 2, S. pneumoniae 2389, Pen R
From the text: as §1

K. baumanii 2579 = experiment: MIC against K. baumanii 2579; assay type: cell-based; conditions: Table 2, K. baumanii 2579, OXA-25
From the text: as §1

E. cloacae 2044 = experiment: MIC against E. cloacae 2044; assay type: cell-based; conditions: Table 2, E. cloacae 2044, Caz S, IMP S
From the text: as §1

S. aureus 3132 = experiment: MIC against S. aureus 3132; assay type: cell-based; conditions: Table 2, S. aureus 3132, MSSA
From the text: as §1

[2] = Streptococcus pneumoniae, alone, read-out: MIC
[3] = Escherichia coli, alone, read-out: MIC
[4] = Klebsiella pneumoniae, alone, read-out: MIC
[5] = Klebsiella pneumoniae, 4107, Table 2, alone, read-out: MIC
[6] = Klebsiella pneumoniae, 4107, Table 3, alone, read-out: MIC
[7] = Staphylococcus aureus, alone, read-out: MIC
[8] = Citrobacter freundii, alone, read-out: MIC
[9] = Enterobacter cloacae, alone, read-out: MIC
[10] = Streptococcus pneumoniae, ATCC700673, alone, read-out: MIC
[11] = Klebsiella pneumoniae, 2689, Table 2, alone, read-out: MIC
[12] = Klebsiella pneumoniae, 2689, Table 3, alone, read-out: MIC
[13] = Pseudomonas aeruginosa, alone, read-out: MIC
[14] = Morganella morganii, alone, read-out: MIC
[15] = Table 2, in combination with NXL-104
[16] = Table 3, in combination with NXL-104

CC(C)(O/N=C(\C(=O)N[C@@H]1C(=O)N2C(C(=O)[O-])=C(C[n+]3ccc4c(ccn4Cc4ccc(C(=N)N)cc4)c3)CS[C@H]12)c1csc(N)n1)C(=O)O [Ex-1, (6R,7R)-7-{[(2Z)-2-(2-Amino-1,3-thiazol-4-yl)-2-{[(2-carboxypropan-2-yl)oxy]imino}acetyl]-amino}-3-{[1-(4-carbamimidoylbenzyl)-1H-pyrrolo[3,2-c]pyridin-5-ium-5-yl]methyl}-8-oxo-5-thia-1-azabicyclo[4.2.0]oct-2-ene-2-carboxylate]
MIC (S. pneumoniae 2493; [2]): 4 µg/mL
MIC (E. coli 4098; [3]): 4 µg/mL
MIC (K. pneumoniae 2712; [4]): > 32 µg/mL
MIC (K. baumanii 4095; alone, read-out: MIC): 0.5 µg/mL
MIC (K. pneumoniae 2690; [4]): 32 µg/mL (≈ 44.6 µM)
MIC (K. pneumoniae 4088; [4]): > 32 µg/mL
MIC (K. pneumoniae 4107; [5]): 16 µg/mL (≈ 22.3 µM)
MIC (K. pneumoniae 4107; [6]): 32 µg/mL (≈ 44.6 µM)
MIC (S. pneumoniae 2407; [2]): 0.12 µg/mL
MIC (S. aureus 3144; [7]): 4 µg/mL
MIC (C. freundii 580; [8]): 16 µg/mL
MIC (E. cloacae596; [9]): 4 µg/mL
MIC (E. coli 4102; [3]): 1 µg/mL
MIC (E. cloacae 2705; [9]): > 32 µg/mL
MIC [1, 10]: 2 µg/mL
MIC (E. cloacae 2704; [9]): 16 µg/mL
MIC (K. pneumoniae 2689; [11]): 8 µg/mL (≈ 11.1 µM)
MIC (K. pneumoniae 2689; [12]): 16 µg/mL (≈ 22.3 µM)
MIC (K. pneumoniae 4109; [4]): 2 µg/mL
MIC (P. aeruginosa 2686; [13]): > 32 µg/mL
MIC (M. morganii 2409; [14]): 8 µg/mL
MIC (E. coli 2668; [3]): 1 µg/mL
MIC (S. pneumoniae 2389; [2]): 4 µg/mL
MIC (K. baumanii 2579; alone, read-out: MIC): 32 µg/mL
MIC (E. cloacae 2044; [9]): 0.25 µg/mL

CC(C)(O/N=C(\C(=O)N[C@@H]1C(=O)N2C(C(=O)[O-])=C(C[n+]3ccc4c(ccn4Cc4cc(C(=N)N)cs4)c3)CS[C@H]12)c1csc(N)n1)C(=O)O [Example 5, (6R,7R)-7-{[(2Z)-2-(2-Amino-1,3-thiazol-4-yl)-2-{[(2-carboxypropan-2-yl)oxy]imino}acetyl]amino}-3-({1-[(4-carbamimidoylthiophen-2-yl)methyl]-1H-pyrrolo[3,2-c]pyridin-5-ium-5-yl}methyl)-8-oxo-5-thia-1-azabicyclo[4.2.0]oct-2-ene-2-carboxylate]
MIC (S. pneumoniae 2493; [2]): 2 µg/mL
MIC (S. pneumoniae 2493; in combination with NXL-104): 2.00 µg/mL
MIC (E. coli 4098; [3]): > 32 µg/mL
MIC (E. coli 4098; in combination with NXL-104): 0.12 µg/mL
MIC (K. pneumoniae 2712; [4]): > 32 µg/mL
MIC (K. pneumoniae 2712; in combination with NXL-104): 4 µg/mL
MIC (K. baumanii 4095; alone, read-out: MIC): 0.25 µg/mL
MIC (K. baumanii 4095; in combination with NXL-104): 0.25 µg/mL
MIC (K. pneumoniae 2690; [4]): 8 µg/mL (≈ 11.1 µM)
MIC (K. pneumoniae 2690; in combination with NXL-104): .5 µg/mL
MIC (K. pneumoniae 4088; [4]): 32 µg/mL (≈ 44.2 µM)
MIC (K. pneumoniae 4088; in combination with NXL-104): 2 µg/mL
MIC (K. pneumoniae 4107; [5]): 32 µg/mL (≈ 44.2 µM)
MIC (K. pneumoniae 4107; [6]): 16 µg/mL (≈ 22.1 µM)
MIC (K. pneumoniae 4107; [15]): 2.00 µg/mL
MIC (K. pneumoniae 4107; [16]): 1 µg/mL
MIC (S. pneumoniae 2407; [2]): ≤ 0.06 µg/mL
MIC (S. pneumoniae 2407; in combination with NXL-104): ≤0.06 µg/mL
MIC (S. aureus 3144; [7]): 4 µg/mL
MIC (S. aureus 3144; in combination with NXL-104): 4.00 µg/mL
MIC (C. freundii 580; [8]): 8 µg/mL
MIC (C. freundii 580; in combination with NXL-104): 0.25 µg/mL
MIC (E. cloacae596; [9]): 8 µg/mL
MIC (E. cloacae596; in combination with NXL-104): 0.25 µg/mL
MIC (E. coli 4102; [3]): 1 µg/mL
MIC (E. coli 4102; in combination with NXL-104): ≤0.06 µg/mL
MIC (E. cloacae 2705; [9]): > 32 µg/mL
MIC (E. cloacae 2705; in combination with NXL-104): >32 µg/mL
MIC [1, 10]: 2 µg/mL
MIC ([1]; in combination with NXL-104): 2.00 µg/mL
MIC (E. cloacae 2704; [9]): 16 µg/mL
MIC (E. cloacae 2704; in combination with NXL-104): 2.00 µg/mL
MIC (K. pneumoniae 2689; [11]): 8 µg/mL (≈ 11.1 µM)
MIC (K. pneumoniae 2689; [12]): 8 µg/mL (≈ 11.1 µM)
MIC (K. pneumoniae 2689; [15]): 1.00 µg/mL
MIC (K. pneumoniae 2689; [16]): 1 µg/mL
MIC (K. pneumoniae 4109; [4]): 8 µg/mL
MIC (K. pneumoniae 4109; in combination with NXL-104): 0.12 µg/mL
MIC (S. aureus 3132; [7]): 2 µg/mL
MIC (S. aureus 3132; in combination with NXL-104): 2.00 µg/mL
MIC (P. aeruginosa 2686; [13]): 32 µg/mL (≈ 44.2 µM)
MIC (P. aeruginosa 2686; in combination with NXL-104): 8 µg/mL
MIC (M. morganii 2409; [14]): 16 µg/mL
MIC (M. morganii 2409; in combination with NXL-104): 0.50 µg/mL
MIC (E. coli 2668; [3]): 1 µg/mL
MIC (E. coli 2668; in combination with NXL-104): ≤0.06 µg/mL
MIC (S. pneumoniae 2389; [2]): 2 µg/mL
MIC (S. pneumoniae 2389; in combination with NXL-104): 1.00 µg/mL
MIC (K. baumanii 2579; alone, read-out: MIC): > 32 µg/mL
MIC (K. baumanii 2579; in combination with NXL-104): 8.00 µg/mL
MIC (E. cloacae 2044; [9]): 0.5 µg/mL
MIC (E. cloacae 2044; in combination with NXL-104): 0.12 µg/mL
